Data: patent publication US6350585B1, “Reagent for assay of amylase isozyme activity” (priority 1998, dated 2002)

Experiments:
[1] = biological target: T1, P-type amylase (Calibzyme P) (Homo sapiens, UniProt P04746); experiment: amylase isozyme activity assay with potassium thiocyanate as activator, P-type amylase sample; format: biochemical; settings: for Change in absorbance, Containing Antibody (Composition A) / Change in absorbance, Without antibody (Composition B) / Relative sensitivity / Percent residual enzyme activity: P-type amylase; for Relative sensitivity: G3CNP at 900 mM = 100; for Percent residual enzyme activity: composition A/B
T1 construct: purchased International Reagents Corporation Calibzyme P
T1 sequence (P04746 16-511): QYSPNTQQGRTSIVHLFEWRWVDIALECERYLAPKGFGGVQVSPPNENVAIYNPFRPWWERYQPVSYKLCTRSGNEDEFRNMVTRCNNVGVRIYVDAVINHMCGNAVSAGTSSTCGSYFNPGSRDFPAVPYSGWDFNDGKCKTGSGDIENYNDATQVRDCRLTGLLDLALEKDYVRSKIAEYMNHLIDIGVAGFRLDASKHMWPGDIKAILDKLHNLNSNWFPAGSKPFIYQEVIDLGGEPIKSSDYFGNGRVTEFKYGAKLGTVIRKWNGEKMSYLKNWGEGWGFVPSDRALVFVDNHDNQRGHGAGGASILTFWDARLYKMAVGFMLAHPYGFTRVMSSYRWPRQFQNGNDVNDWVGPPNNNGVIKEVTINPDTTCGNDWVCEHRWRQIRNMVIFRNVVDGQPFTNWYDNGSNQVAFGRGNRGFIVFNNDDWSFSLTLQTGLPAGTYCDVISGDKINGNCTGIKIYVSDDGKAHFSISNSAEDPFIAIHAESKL
Method: A reagent for amylase isozyme activity assay comprising each composition as mentioned below was prepared. In the Table showing the composition, GalG2CNP (Example) is 2-chloro-4-nitrophenyl 4-O-β-D-galactopyranosylmaltoside, and G3CNP (Comparative Example) is 2-chloro-4-nitrophenylmaltotrioside.
S-type amylase-inhibiting antibody 88E8 (manufactured by Roche Diagnostics K.K.) 20 mg/L
S-type amylase-inhibiting antibody 66C7 (manufactured by Roche Diagnostics K.K.) 5 mg/L
(§1) Substrate (GalG2CNP (Example) or G3CNP (Comparative Example)) 2.6 mM
(2) P-type Amylase (Calibzyme P, Manufactured by International Reagents Corporation)
Each sample (0.05 mL was added to the reagent A (3 mL) and the reagent B (3 mL), respectively, and the mixtures were allowed to stand at 37° C. for 3 minutes. Then, the change in absorbance at 405 nm was assayed, and the change in absorbance per minute was calculated. The results are shown in Tables 1 and 2.
In the Tables, P is the case where P-type amylase was used as the sample, and S is the case where S-type amylase was used.
Percent residual enzyme activity (%)=(change in absorbance of composition A)/(change in absorbance of composition B)×100
Relative sensitivity (%)=(change in absorbance of composition B)/(change in absorbance of Comparative Example wherein potassium thiocyanate was 900 mM)×100

P-type amylase = biological target: T2, P-type amylase (Homo sapiens, UniProt P04746); experiment: P-type amylase activity assay of serum with reagent E; format: biochemical; settings: composition E; for P-type amylase activity value: potassium thiocyanate 140 mM
T2 construct: Serum (1, 2 or 3); from tissue; host or cells: serum
T2 sequence (P04746 16-511): T1 sequence (P04746 16-511)
Method: Good buffer (pH 6.2) 50 mM
S-type amylase inhibitory antibody 88E8 (manufactured by Roche Diagnostics K.K.) 15 mg/L
S-type amylase inhibitory antibody 66C7 (manufactured by Roche Diagnostics K.K.) 1.25 mg/L
Potassium thiocyanate 140 mM
as §1
(1) Distilled water (blank)
Each of the above-mentioned reagents (0.05 mL) was added to the above reagent E (3 mL) and the mixtures were left standing at 37° C. for 3 minutes. Then, change in absorbance at 405 nm was assayed and change in absorbance per minute was calculated. The obtained change in absorbance was converted to P-type amylase activity value at this composition using the molecular extinction coefficient of CNP.

In the case of `O=[N+]([O-])c1ccc(O[C@H]2O[C@H](CO)[C@@H](O[C@H]3O[C@H](CO)[C@@H](O[C@H]4O[C@H](CO)[C@@H](O)[C@H](O)[C@H]4O)[C@H](O)[C@H]3O)[C@H](O)[C@H]2O)c(Cl)c1` [Example G3CNP, 2-chloro-4-nitrophenylmaltotrioside, reference compound], the “Change in absorbance, Containing Antibody (Composition A)” value (“Change in absorbance … (Composition A)” for short) ([1]; potassium thiocyanate 0 mM) is reported as 9.3 mABS/min, the “Change in absorbance, Without antibody (Composition B)” value ([1]; potassium thiocyanate 0 mM) is reported as 9.3 mABS/min and the Relative sensitivity ([1]; potassium thiocyanate 0 mM) is reported as 19.4%. The “Percent residual enzyme activity” value ([1]; potassium thiocyanate 0 mM) was 100.0%, the “Change in absorbance … (Composition A)” value ([1]; potassium thiocyanate 50 mM) was 17.1 mABS/min and the “Change in absorbance, Without antibody (Composition B)” value ([1]; potassium thiocyanate 50 mM) was 17.7 mABS/min. For the same compound, the Relative sensitivity ([1]; potassium thiocyanate 50 mM) was 37.0%, the “Percent residual enzyme activity” value ([1]; potassium thiocyanate 50 mM) was 96.6% and the “Change in absorbance … (Composition A)” value ([1]; potassium thiocyanate 100 mM) was 22.3 mABS/min. For the same compound, the “Change in absorbance, Without antibody (Composition B)” value ([1]; potassium thiocyanate 100 mM) was 23.4 mABS/min, the Relative sensitivity ([1]; potassium thiocyanate 100 mM) was 48.9% and the “Percent residual enzyme activity” value ([1]; potassium thiocyanate 100 mM) was 95.3%. For the same compound, the “Change in absorbance … (Composition A)” value ([1]; potassium thiocyanate 140 mM) was 26.1 mABS/min, the “Change in absorbance, Without antibody (Composition B)” value ([1]; potassium thiocyanate 140 mM) was 27.2 mABS/min and the Relative sensitivity ([1]; potassium thiocyanate 140 mM) was 56.8%. The “Percent residual enzyme activity” value ([1]; potassium thiocyanate 140 mM) was 96.0%, the “Change in absorbance … (Composition A)” value ([1]; potassium thiocyanate 200 mM) was 30.3 mABS/min and the “Change in absorbance, Without antibody (Composition B)” value ([1]; potassium thiocyanate 200 mM) was 31.6 mABS/min. For the same compound, the Relative sensitivity ([1]; potassium thiocyanate 200 mM) was 66.0%, the “Percent residual enzyme activity” value ([1]; potassium thiocyanate 200 mM) was 95.9% and the “Change in absorbance … (Composition A)” value ([1]; potassium thiocyanate 300 mM) was 37.3 mABS/min. The “Change in absorbance, Without antibody (Composition B)” value ([1]; potassium thiocyanate 300 mM) was 39.3 mABS/min, the Relative sensitivity ([1]; potassium thiocyanate 300 mM) was 82.0% and the “Percent residual enzyme activity” value ([1]; potassium thiocyanate 300 mM) was 94.9%. For the same compound, the “Change in absorbance … (Composition A)” value ([1]; potassium thiocyanate 400 mM) was 42.6 mABS/min, the “Change in absorbance, Without antibody (Composition B)” value ([1]; potassium thiocyanate 400 mM) was 43.7 mABS/min and the Relative sensitivity ([1]; potassium thiocyanate 400 mM) was 91.2%. For the same compound, the “Percent residual enzyme activity” value ([1]; potassium thiocyanate 400 mM) was 97.5%, the “Change in absorbance … (Composition A)” value ([1]; potassium thiocyanate 500 mM) was 46.6 mABS/min and the “Change in absorbance, Without antibody (Composition B)” value ([1]; potassium thiocyanate 500 mM) was 46.7 mABS/min. The Relative sensitivity ([1]; potassium thiocyanate 500 mM) was 97.5%, the “Percent residual enzyme activity” value ([1]; potassium thiocyanate 500 mM) was 99.8% and the “Change in absorbance … (Composition A)” value ([1]; potassium thiocyanate 600 mM) was 48.1 mABS/min. For the same compound, the “Change in absorbance, Without antibody (Composition B)” value ([1]; potassium thiocyanate 600 mM) was 47.5 mABS/min, the Relative sensitivity ([1]; potassium thiocyanate 600 mM) was 99.2% and the “Percent residual enzyme activity” value ([1]; potassium thiocyanate 600 mM) was 101.3%. The “Change in absorbance … (Composition A)” value ([1]; potassium thiocyanate 700 mM) was 49.9 mABS/min, the “Change in absorbance, Without antibody (Composition B)” value ([1]; potassium thiocyanate 700 mM) was 49.4 mABS/min and the Relative sensitivity ([1]; potassium thiocyanate 700 mM) was 103.1%. The “Percent residual enzyme activity” value ([1]; potassium thiocyanate 700 mM) was 101.0%, the “Change in absorbance … (Composition A)” value ([1]; potassium thiocyanate 800 mM) was 49.8 mABS/min and the “Change in absorbance, Without antibody (Composition B)” value ([1]; potassium thiocyanate 800 mM) was 48.8 mABS/min. For the same compound, the Relative sensitivity ([1]; potassium thiocyanate 800 mM) was 101.9%, the “Percent residual enzyme activity” value ([1]; potassium thiocyanate 800 mM) was 102.0% and the “Change in absorbance … (Composition A)” value ([1]; potassium thiocyanate 900 mM) was 48.6 mABS/min. For the same compound, the “Change in absorbance, Without antibody (Composition B)” value ([1]; potassium thiocyanate 900 mM) was 47.9 mABS/min, the Relative sensitivity ([1]; potassium thiocyanate 900 mM) was 100.0% and the “Percent residual enzyme activity” value ([1]; potassium thiocyanate 900 mM) was 101.5%. For the same compound, the “relative sensitivity of P-type amylase as multiple of the standard sensitivity” value ([1]; potassium thiocyanate 200 mM, standard = G3CNP at 900 mM) was “about ⅔”, the “P-type amylase activity value” (P-type amylase; Serum 1) was 16.8 IU/L and the “P-type amylase activity value” (P-type amylase; Serum 2) was 106.3 IU/L. The “P-type amylase activity value” (P-type amylase; Serum 3) was 80.9 IU/L and the “Blank, change in absorbance per minute” value (P-type amylase; distilled water as sample) was 0.0006 ABS/min.
